Data set [1] can be described thus: Solubility of synthesized peptide. As to conditions: chemically synthesized peptide, in inhibitor screening assay. In kind it is physicochemical. On the procedure: (§1) We prepared the C4m-3127 cyclic peptide using chemical synthesis and examined its properties. First, the inhibitory activity was tested using a kit (CTLA-4:B7-1[Biotinylated] Inhibitor Screening Assay, BPS Bioscience Inc.) (Figure 5A). […] In a sequence of C4m-3127, the GG linker behind C-terminal Cys had mutated into Glu and Arg.

The next data set deals with T1, CTLA-4 (Homo sapiens, UniProt P16410).
T1 sequence (P16410 36-223): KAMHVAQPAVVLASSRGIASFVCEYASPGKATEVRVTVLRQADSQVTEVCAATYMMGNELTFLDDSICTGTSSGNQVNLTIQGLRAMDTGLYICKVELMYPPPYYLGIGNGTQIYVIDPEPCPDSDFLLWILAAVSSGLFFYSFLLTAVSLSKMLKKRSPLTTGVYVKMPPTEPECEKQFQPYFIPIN
The data set can be described thus: Competitive ELISA against biotinylated C4m-3127 peptide. The class given is binding. The following applies: competition with 30 μM biotinylated C4m-3127 peptide on immobilized CTLA-4; data not shown. Here is the method:
Competition experiments were performed using biotinylated C4m-3127 peptide instead of biotinylated B7-1 in the CTLA-4:B7-1[Biotinylated] inhibitor screening assay. The biotinylated C4m-3127 peptide was optimized to a concentration of 30 μM in an earlier experiment. CTLA-4 immobilized on a 384-well plate was reacted with PGF00506 in 11-point two-fold serial dilution from 1000 to 0.98 μM by assay buffer. Then, the biotinylated peptides were added to wells for competitive reaction. After washing, the residual amounts of biotinylated peptides were detected using streptavidin-HRP.
For orientation: ELISA stands for enzyme-linked immunosorbent assay.

In data set [2] the target is T2, interaction between CTLA-4 and B7-1 (Homo sapiens, UniProt P16410).
T2 construct: purchased BPS Bioscience Inc
T2 sequence (P16410 36-161 limits assumed): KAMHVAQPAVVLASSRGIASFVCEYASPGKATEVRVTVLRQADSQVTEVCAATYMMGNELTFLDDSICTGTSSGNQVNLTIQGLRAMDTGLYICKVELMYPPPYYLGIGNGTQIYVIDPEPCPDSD
The experiment in a line: CTLA-4:B7-1[Biotinylated] Inhibitor Screening Assay (BPS Bioscience kit). The class given is binding. On the procedure:
as §1
A cyclic peptide with a low EC50 value was synthesized by adding glycine to the N-terminus at Toray Research Center.
(B) Flow cytometry affinity analysis.

The structures appear in SMILES notation. Positions of bridges follow the written chain, without caps; N, C: chain ends. Residues, ends and D or L forms follow the SMILES beside them.

As a reminder, the IC50 is the point on the concentration scale where inhibition reaches its midpoint.

For the compound `CC[C@H](C)[C@@H]1NC(=O)[C@@H]2CCCN2C(=O)[C@H](CC(C)C)NC(=O)[C@H](Cc2ccccc2)NC(=O)[C@@H]2CCCN2C(=O)[C@H](Cc2c[nH]cn2)NC(=O)[C@H](CCSC)NC(=O)[C@@H](NC(=O)CN)CSSC[C@@H](C(=O)N[C@@H](CCC(=O)O)C(=O)N[C@@H](CCCNC(=N)N)C(=O)O)NC(=O)[C@H](Cc2ccccc2)NC(=O)[C@H](Cc2c[nH]cn2)NC(=O)[C@H](Cc2c[nH]cn2)NC(=O)[C@H](CO)NC(=O)[C@H](C(C)C)NC1=O` [C4m-3127 peptide] (H-GCMHPFLPIVSHHFCER-OH; disulfide 2-15; N-terminus and C-terminus assumed), the solubility result in data set [1] was “improved solubility”.

With `N=C(N)NCCC[C@H]1C(=O)N(CCC(c2ccccc2)c2ccccc2)C[C@@H]2N(C(=O)OCc3ccccc3)O[C@H](CC3CCCCC3)C(=O)N21` [PGF00506, Benzyl (3R,6S,9aS)-3-(cyclohexylmethyl)-8-(3,3-diphenylpropyl)-6-(3-guanidinopropyl)-4,7-dioxohexahydropyrazino [2,1-c][1,2,4]oxadiazine-1(6H)-carboxylate], the IC50 on CTLA-4 stood at 10.5 µM; in data set [2] (inhibition of CTLA-4:B7-1 interaction, luminescence, four-parameter logistic fit, read-out: IC50) it was 6.8 µM. Further, the “inhibitory activity compared to PGF00432” value in data set [2] (ratio of IC50 values) came out at 43 fold. In data set [2] (ratio of IC50 values, C4m-3127 synthetic peptide IC50 = 11.5 μM), the “inhibitory activity compared to C4m-3127” value turned out to be 1.7 fold.

(Values after PMC9784018, “Rational Strategy for Designing Peptidomimetic Small Molecules Based on Cyclic Peptides Targeting Protein–Protein Interaction between CTLA-4 and B7-1” (Pharmaceuticals, 2022).)
